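Tested at 5 concentrations; 48 h exposure; 96-well plates; endpoints linearly interpolated, else capped at highest concentration. The concentration for full growth arrest is given as TGI.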
Experiments:
Assay in all cases: growth of human tumour cells (NCI), 48 h
786-0 renal = tested on: 786-0 renal
A498 renal = tested on: A498 renal
A549 NSCLC = tested on: A549 NSCLC
ACHN renal = tested on: ACHN renal
BT-549 breast = tested on: BT-549 breast
CAKI-1 renal = tested on: CAKI-1 renal
CCRF-CEM leukemia = tested on: CCRF-CEM leukemia
COLO 205 colon = tested on: COLO 205 colon
DU-145 prostate = tested on: DU-145 prostate
EKVX NSCLC = tested on: EKVX NSCLC
HCC-2998 colon = tested on: HCC-2998 colon
HCT-116 colon = tested on: HCT-116 colon
HCT-15 colon = tested on: HCT-15 colon
HL-60(TB) leukemia = tested on: HL-60(TB) leukemia
HOP-62 NSCLC = tested on: HOP-62 NSCLC
HOP-92 NSCLC = tested on: HOP-92 NSCLC
HS 578T breast = tested on: HS 578T breast
HT29 colon = tested on: HT29 colon
IGROV1 ovarian = tested on: IGROV1 ovarian
K-562 leukemia = tested on: K-562 leukemia
KM12 colon = tested on: KM12 colon
LOX IMVI melanoma = tested on: LOX IMVI melanoma
M14 melanoma = tested on: M14 melanoma
MCF7 breast = tested on: MCF7 breast
MDA-MB-231 breast = tested on: MDA-MB-231 breast
MDA-MB-435 = tested on: MDA-MB-435
MDA-N = tested on: MDA-N
MOLT-4 leukemia = tested on: MOLT-4 leukemia
NCI-H226 lung = tested on: NCI-H226 lung
NCI-H23 lung = tested on: NCI-H23 lung
NCI-H460 lung = tested on: NCI-H460 lung
NCI/ADR-RES ovarian = tested on: NCI/ADR-RES ovarian
OVCAR-3 ovarian = tested on: OVCAR-3 ovarian
OVCAR-4 ovarian = tested on: OVCAR-4 ovarian
OVCAR-5 ovarian = tested on: OVCAR-5 ovarian
OVCAR-8 ovarian = tested on: OVCAR-8 ovarian
PC-3 prostate = tested on: PC-3 prostate
RPMI-8226 leukemia = tested on: RPMI-8226 leukemia
RXF 393 renal = tested on: RXF 393 renal
SF-268 CNS = tested on: SF-268 CNS
SF-295 CNS = tested on: SF-295 CNS
SF-539 CNS = tested on: SF-539 CNS
SK-MEL-2 melanoma = tested on: SK-MEL-2 melanoma
SK-MEL-28 melanoma = tested on: SK-MEL-28 melanoma
SK-MEL-5 melanoma = tested on: SK-MEL-5 melanoma
SK-OV-3 ovarian = tested on: SK-OV-3 ovarian
SN12C renal = tested on: SN12C renal
SNB-19 CNS = tested on: SNB-19 CNS
SNB-75 CNS = tested on: SNB-75 CNS
SR leukemia = tested on: SR leukemia
SW-620 colon = tested on: SW-620 colon
T-47D breast = tested on: T-47D breast
TK-10 renal = tested on: TK-10 renal
U251 CNS = tested on: U251 CNS
UACC-257 melanoma = tested on: UACC-257 melanoma
UACC-62 melanoma = tested on: UACC-62 melanoma
UO-31 renal = tested on: UO-31 renal
MALME-3M melanoma = tested on: MALME-3M melanoma
NCI-H522 lung = tested on: NCI-H522 lung

In the case of `O=C1c2cc3ccccc3cc2C2(c3ccc(Cl)cc3)NCCN12` (stereo not given), the TGI (786-0 renal) is reported as 99.2 µM, the TGI (A498 renal) is reported as > 100 µM and the TGI (A549 NSCLC) is reported as 87.4 µM. For the same molecule, the TGI (ACHN renal) was > 100 µM, the TGI (BT-549 breast) was > 100 µM and the TGI (CAKI-1 renal) was > 100 µM. For the same molecule, the TGI (CCRF-CEM leukemia) was > 100 µM, the TGI (COLO 205 colon) was 36.3 µM and the TGI (DU-145 prostate) was > 100 µM. For the same molecule, the TGI (EKVX NSCLC) was 95.9 µM, the TGI (HCC-2998 colon) was 60.4 µM and the TGI (HCT-116 colon) was 45 µM. The TGI (HCT-15 colon) was > 100 µM, the TGI (HL-60(TB) leukemia) was 80 µM and the TGI (HOP-62 NSCLC) was 86.3 µM. The TGI (HOP-92 NSCLC) was > 100 µM, the TGI (HS 578T breast) was > 100 µM and the TGI (HT29 colon) was > 100 µM. For the same molecule, the TGI (IGROV1 ovarian) was > 100 µM, the TGI (K-562 leukemia) was > 100 µM and the TGI (KM12 colon) was 49.3 µM. For the same molecule, the TGI (LOX IMVI melanoma) was 56.3 µM, the TGI (M14 melanoma) was 92.7 µM and the TGI (MCF7 breast) was 77.9 µM. For the same molecule, the TGI (MDA-MB-231 breast) was > 100 µM, the TGI (MDA-MB-435) was > 100 µM and the TGI (MDA-N) was > 100 µM. The TGI (MOLT-4 leukemia) was > 100 µM, the TGI (NCI-H226 lung) was > 100 µM and the TGI (NCI-H23 lung) was 64.1 µM. For the same molecule, the TGI (NCI-H460 lung) was > 100 µM, the TGI (NCI/ADR-RES ovarian) was > 100 µM and the TGI (OVCAR-3 ovarian) was 53.8 µM. For the same molecule, the TGI (OVCAR-4 ovarian) was > 100 µM, the TGI (OVCAR-5 ovarian) was 81 µM and the TGI (OVCAR-8 ovarian) was > 100 µM. For the same molecule, the TGI (PC-3 prostate) was 94.9 µM, the TGI (RPMI-8226 leukemia) was 98.2 µM and the TGI (RXF 393 renal) was 42.3 µM. The TGI (SF-268 CNS) was > 100 µM, the TGI (SF-295 CNS) was 62 µM and the TGI (SF-539 CNS) was 61.5 µM. For the same molecule, the TGI (SK-MEL-2 melanoma) was 45.5 µM, the TGI (SK-MEL-28 melanoma) was > 100 µM and the TGI (SK-MEL-5 melanoma) was 40.4 µM. The TGI (SK-OV-3 ovarian) was 68.9 µM, the TGI (SN12C renal) was > 100 µM and the TGI (SNB-19 CNS) was 68.9 µM. For the same molecule, the TGI (SNB-75 CNS) was > 100 µM, the TGI (SR leukemia) was > 100 µM and the TGI (SW-620 colon) was > 100 µM. For the same molecule, the TGI (T-47D breast) was > 100 µM, the TGI (TK-10 renal) was > 100 µM and the TGI (U251 CNS) was > 100 µM. The TGI (UACC-257 melanoma) was > 100 µM, the TGI (UACC-62 melanoma) was 55.4 µM and the TGI (UO-31 renal) was > 100 µM.

`C/C(=N\NC(=O)c1ccncc1)c1ccccc1Cl` was tested, and the TGI (786-0 renal) was > 100 µM, the TGI (A498 renal) was > 100 µM and the TGI (A549 NSCLC) was > 100 µM. The TGI (ACHN renal) was > 100 µM, the TGI (BT-549 breast) was > 100 µM and the TGI (CAKI-1 renal) was > 100 µM. For the same molecule, the TGI (CCRF-CEM leukemia) was > 100 µM, the TGI (COLO 205 colon) was > 100 µM and the TGI (DU-145 prostate) was > 100 µM. For the same molecule, the TGI (EKVX NSCLC) was > 100 µM, the TGI (HCT-116 colon) was > 100 µM and the TGI (HCT-15 colon) was > 100 µM. The TGI (HL-60(TB) leukemia) was > 100 µM, the TGI (HOP-62 NSCLC) was > 100 µM and the TGI (HOP-92 NSCLC) was > 100 µM. For the same molecule, the TGI (HS 578T breast) was > 100 µM, the TGI (HT29 colon) was > 100 µM and the TGI (IGROV1 ovarian) was > 100 µM. The TGI (K-562 leukemia) was > 100 µM, the TGI (KM12 colon) was > 100 µM and the TGI (LOX IMVI melanoma) was > 100 µM. For the same molecule, the TGI (M14 melanoma) was > 100 µM, the TGI (MALME-3M melanoma) was > 100 µM and the TGI (MCF7 breast) was > 100 µM. The TGI (MDA-MB-231 breast) was > 100 µM, the TGI (MDA-MB-435) was > 100 µM and the TGI (MDA-N) was > 100 µM. For the same molecule, the TGI (MOLT-4 leukemia) was > 100 µM, the TGI (NCI-H226 lung) was > 100 µM and the TGI (NCI-H23 lung) was > 100 µM. For the same molecule, the TGI (NCI-H460 lung) was > 100 µM, the TGI (NCI-H522 lung) was > 100 µM and the TGI (NCI/ADR-RES ovarian) was > 100 µM. The TGI (OVCAR-3 ovarian) was > 100 µM, the TGI (OVCAR-4 ovarian) was > 100 µM and the TGI (OVCAR-5 ovarian) was > 100 µM. For the same molecule, the TGI (OVCAR-8 ovarian) was > 100 µM, the TGI (PC-3 prostate) was > 100 µM and the TGI (RPMI-8226 leukemia) was > 100 µM. The TGI (RXF 393 renal) was > 100 µM, the TGI (SF-268 CNS) was > 100 µM and the TGI (SF-295 CNS) was > 100 µM. The TGI (SF-539 CNS) was > 100 µM, the TGI (SK-MEL-2 melanoma) was > 100 µM and the TGI (SK-MEL-28 melanoma) was > 100 µM. For the same molecule, the TGI (SK-MEL-5 melanoma) was > 100 µM, the TGI (SK-OV-3 ovarian) was > 100 µM and the TGI (SN12C renal) was > 100 µM. The TGI (SNB-19 CNS) was > 100 µM, the TGI (SNB-75 CNS) was > 100 µM and the TGI (SR leukemia) was > 100 µM. For the same molecule, the TGI (SW-620 colon) was > 100 µM, the TGI (T-47D breast) was > 100 µM and the TGI (TK-10 renal) was > 100 µM. The TGI (U251 CNS) was > 100 µM, the TGI (UACC-257 melanoma) was > 100 µM and the TGI (UACC-62 melanoma) was > 100 µM. For the same molecule, the TGI (UO-31 renal) was > 100 µM.
